Source: patent US7235572B2, “Thiazolyl-indole derivatives, their manufacture and use as pharmaceutical agents” (Hoffman-La Roche Inc., priority 2003, dated 2007)

Experiments:
PPARα = target: T1, PPARα (Homo sapiens, UniProt Q07869); assay: PPARα radioligand binding assay (scintillation proximity, GST-PPARα-LBD); conditions: SPA radioligand binding
T1 construct: PPARα (aa 167 to 469); made in house; host or cells: E. coli BL21 (pLysS)
T1 sequence (Q07869 167-468 limits assumed): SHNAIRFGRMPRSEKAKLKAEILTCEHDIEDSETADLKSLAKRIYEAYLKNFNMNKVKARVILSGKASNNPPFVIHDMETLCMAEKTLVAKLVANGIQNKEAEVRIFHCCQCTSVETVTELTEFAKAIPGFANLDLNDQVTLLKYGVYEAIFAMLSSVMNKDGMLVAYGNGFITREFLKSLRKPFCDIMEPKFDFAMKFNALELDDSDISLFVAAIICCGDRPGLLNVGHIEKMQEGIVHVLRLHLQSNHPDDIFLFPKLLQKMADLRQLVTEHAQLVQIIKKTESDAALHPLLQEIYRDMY
From the text: (§1) Background information on the performed assays can be found in: Nichols J S et al. “Development of a scintillation proximity assay for peroxisome proliferator-activated receptor gamma ligand binding domain”, (1998) Anal. Biochem. 257: 112–119.
(§2) Full-length cDNA clones for humans PPARδ and PPARα and mouse PPARγ were obtained by RT-PCR from human adipose and mouse liver cRNA, respectively, cloned into plasmid vectors and verified by DNA sequencing. Bacterial and mammalian expression vectors were constructed to produce glutathione-s-transferase (GST) and Gal4 DNA binding domain proteins fused to the ligand binding domains (LBD) of PPARδ (aa 139 to 442), PPARγ (aa 174 to 476) and PPARα (aa 167 to 469). To accomplish this, the portions of the cloned sequences encoding the LBDs were amplified from the full-length clones by PCR and then subcloned into the plasmid vectors. Final clones were verified by DNA sequence analysis. […]
(§3) PPARα receptor binding was assayed in TKE50 (50 mM Tris-HCl, pH 8, 50 mM KCl, 2 mM EDTA, 0.1 mg/ml fatty acid-free BSA and 10 mM DTT). […] All binding assays were performed in 96 well plates and the amount of bound ligand measured on a Packard TopCount using OptiPlates (Packard). Nonspecific binding was determined in the presence of 10^−4 M unlabelled compound. […]

PPARγ = target: T2, PPARγ (Mus musculus, UniProt P37238); assay: PPARγ radioligand binding assay (scintillation proximity, GST-PPARγ-LBD); conditions: SPA radioligand binding
T2 construct: PPARγ (aa 174 to 476); made in house; host or cells: E. coli BL21 (pLysS)
T2 sequence (P37238 204-505): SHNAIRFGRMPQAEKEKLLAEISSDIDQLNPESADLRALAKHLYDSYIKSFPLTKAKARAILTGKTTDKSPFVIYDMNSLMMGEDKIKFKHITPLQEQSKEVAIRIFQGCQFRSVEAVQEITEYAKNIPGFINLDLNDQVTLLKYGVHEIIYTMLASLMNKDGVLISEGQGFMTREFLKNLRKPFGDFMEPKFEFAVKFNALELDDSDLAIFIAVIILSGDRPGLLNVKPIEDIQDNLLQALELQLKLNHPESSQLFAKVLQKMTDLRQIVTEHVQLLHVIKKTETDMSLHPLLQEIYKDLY
From the text: as §1, §2
as §3, with “PPARγ” for “PPARα”

PPARδ = target: T3, PPARδ (Homo sapiens, UniProt Q03181); assay: PPARδ radioligand binding assay (scintillation proximity, GST-PPARδ-LBD); conditions: SPA radioligand binding
T3 construct: PPARδ (aa 139 to 442); made in house; host or cells: E. coli BL21 (pLysS)
T3 sequence (Q03181 139-441 limits assumed): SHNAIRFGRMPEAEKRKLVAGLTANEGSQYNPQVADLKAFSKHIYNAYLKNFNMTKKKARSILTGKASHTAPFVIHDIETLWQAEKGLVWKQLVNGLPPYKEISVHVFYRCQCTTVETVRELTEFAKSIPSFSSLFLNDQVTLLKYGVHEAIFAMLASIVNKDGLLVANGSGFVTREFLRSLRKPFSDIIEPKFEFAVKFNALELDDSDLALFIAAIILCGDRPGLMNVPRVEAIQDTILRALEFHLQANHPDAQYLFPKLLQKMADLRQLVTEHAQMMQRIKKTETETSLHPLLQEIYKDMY
From the text: as §1, §2
PPARδ receptor binding was assayed in HNM10 (50 mM Hepes, pH 7.4, 10 mM NaCl, 5 mM MgCl2, 0.15 mg/ml fatty acid-free BSA and 15 mM DTT). […] Radioligand was added and the reaction incubated at RT for 1 h and scintillation proximity counting performed in the presence of test compounds was determined. All binding assays were performed in 96 well plates and the amount of bound ligand was measured on a Packard TopCount using OptiPlates (Packard). […]

Row | melting point | IC50 (PPARα) [nM] | IC50 (PPARγ) [nM] | IC50 (PPARδ) [nM] | SMILES
1 | 187 to 188 °C (dec.) |  |  |  | Cc1nc(-c2ccc(C(F)(F)F)cc2)sc1COc1ccc2c(c1)cc(C)n2CC(=O)O [Example 32, {2-methyl-5-[4-methyl-2-(4-trifluoromethyl-phenyl)-thiazol-5-ylmethoxy]-indol-1-yl}-acetic acid]
2 |  | 227 | ≥ 10000 | 42 | Cc1nc(-c2ccc(C(F)(F)F)cc2)sc1CCCOc1cccc2c1ccn2CC(=O)O [Example 8, (4-{3-[4-methyl-2-(4-trifluoromethyl-phenyl)-thiazol-5-yl]-propoxy}-indol-1-yl)-acetic acid]
3 |  | 2230 | ≥ 10000 | 24 | Cc1nc(-c2ccc(C(F)(F)F)cc2)sc1C(C)Oc1ccc2ccn(CC(=O)O)c2c1 (racemic) [Example 2, [rac]-(6-{1-[4-methyl-2-(4-trifluoromethyl-phenyl)-thiazol-5-yl]-ethoxy}-indol-1-yl)-acetic acid]
